One may read the EC50 as the midpoint of the concentration-response curve. Higher therefore signals a less potent agent.

One series deals with FVB/N mice. In words: Adverse effects and toxicity in normal mice. The class given is in vivo, mouse. Conditions: oral gavage 50 and 100 mg/kg body, 7 days. As to the method:
Adverse effects and toxicity to the normal cells are the most challenging part of the anticancer drug development process. […] The body weight and any side effects of contraindication monitored during the period.
Control mice received PBS. After one weak of drug administration, mouse weight was measured every day for 7 days. We used 3 mice in each group. (A) Body weight changes in control mice (B and C) Body weight changes in CMC1 (50 and 100 mg/kg body). (D and E) Body weight changes in CMC1 (50 and 100 mg/kg body) Computational Studies: […]

For a further series, the system named is MDA-MB231 (MB231) cells. In words: MTT cell proliferation assay, MB231 cells. The class given is cell-based, human. As to the method: (§1) We tested the antitumor potential of All the synthesized six DCA-curcumin hybrid conjugates (CMC 1-CMC 6) with two different human breast cancer cell lines [T47D, an ER-positive BC cell line and MDA-MB231 (MB231), a triple-receptor negative BC (TNBC) cell line] using the colorimetric MTT (3-(4,5-dimethylthiazol-2yl)-2,5-diphenyltetrazolium bromide) cell proliferation assay kit.
(§2) […] and MB231 cells (5×10^3) were seed in 96-well plates and left them in the cell culture incubator at 37° C. with 5% CO2 in DMEM and RPMI medium (100 μl), respectively. After 24 h, the medium was replaced with the CMC compounds at different concentrations (0, 1, 5, and 10 μM) for 72 h. After 72 h, 10 μl Reliablue reagent was added to each well and incubated for 2 h for the formation of purple formazan and then added 100 μl of detergent to dissociate the formazan precipitate and measured at 570 nm. Values are shown as mean±SEM of three experiments with 6 wells in each, a total of 18 repeats.
On the technique in general: Tetrazolium dyes change colour on reduction, which living cells bring about.

For the next series, the system named is MMTV-PyMT-Tg mice. In words: Tumor growth in genetically engineered mouse (GEM) model of breast cancer. The class given is in vivo. Conditions: 10 mg/kg body, three times a week by oral gavage for 7 weeks. As to the method: The antitumor potential of one of the most potential CMC compound, CMC2, in genetically engineered mouse (GEM) model of breast cancer, MMTV-PyMT-Tg mice was tested. The MMTV-PyMT-Tg mouse was mainly chosen because the tumor formation and progression in this mouse is characterized by four different stages (hyperplasia, adenoma/mammary intra-epithelial neoplasia, early and late carcinoma) and also mimics human breast cancer, the tumor develops first as ER-positive (ER^+) but ultimately becomes ER-negative BC (ER^− BC).
It was randomly assigned 6-week-old MMTV-PyMT-Tg mice into two groups (3 mice in each); one control and one CMC2 treated (10 mg/kg body, three times a week by oral gavage for 7 weeks). Tumor volume was measured twice a week and the volume was calculated using the formula V=L×W^2/2, where L represents the largest tumor diameter and W represents the smallest tumor diameter. After the experimental period, tumor tissues were collected, a picture was taken, and tumor weight was measured. Tissue sections were prepared from the tumor tissue and stained for Hematoxylin and Eosin (H & E) section and also stained for the Ki67 for cell proliferation. Tissue sections and H & E sections were prepared from the Augusta University Histology core facility.
Six-week-old MMTV-PyMT-Tg mice were treated with CMC2 (10 mg/kg body for 3× a week for 7 weeks. Control mice received PBS. Tumor volume was measured twice a week and calculated (A). After the experimental period, tumor size (B) and tumor weight (C) were also analyzed. Tissue sections were prepared and stained with H & E and Ki67 (D). Values are shown as mean±SD of three mice in each.

Another series has as its system T47D cells. In words: MTT cell proliferation assay, T47D cells. The following applies: 72 h. The series is classed as cell-based, human. As to the method: as §1, §2

Structures are written as SMILES.

With `COc1cc(/C=C/C(=O)/C=C(O)/C=C/c2ccc(OC(=O)C(Cl)Cl)c(OC)c2)ccc1OC(=O)C(Cl)Cl` [CMC 1], in the series with FVB/N mice, the “contraindication / side effects” value was “no contraindication” and the “mouse growth (body weight)” value is given as “normal”. This compound also had an EC50 in the series with MDA-MB231 (MB231) cells (Homo sapiens, MDA-MB-231, 72 h) of 424 nM.
As to `COc1cc(/C=C/C(=O)/C=C(O)/C=C/c2ccc(OC(=O)CNC(=O)C(Cl)Cl)c(OC)c2)ccc1OC(=O)CNC(=O)C(Cl)Cl` [CMC 2], in the series with FVB/N mice, the “contraindication / side effects” value is on record as “no contraindication” and the “mouse growth (body weight)” value is “normal”. Further, in the series with MMTV-PyMT-Tg mice, the “tumor growth (tumor volume)” value is given as “significantly reduced”, the tumor size result was “significantly reduced” and the tumor weight entry is given as “significantly reduced”. Further, the concentration giving a half-maximal response (EC50) in the series on MDA-MB231 (MB231) cells (72 h) came out at 778 nM. The compound further came in with an EC50 in the series on T47D cells of 1420 nM.
As for `COc1cc(/C=C/C(=O)/C=C(O)/C=C/c2ccc(OC(=O)[C@H](C)NC(=O)C(Cl)Cl)c(OC)c2)ccc1OC(=O)[C@H](C)NC(=O)C(Cl)Cl` [CMC 3], the concentration for a half-maximal effect (EC50) is 518 nM in the series with MDA-MB231 (MB231) cells (72 h) and 1600 nM in the series on T47D cells.
For `COc1cc(/C=C/C(=O)/C=C(O)/C=C/c2ccc(OC(=O)CCNC(=O)C(Cl)Cl)c(OC)c2)ccc1OC(=O)CCNC(=O)C(Cl)Cl` [CMC 4], in that order: 1130 nM and 1260 nM.
On to `COc1cc(/C=C/C(=O)/C=C(O)/C=C/c2ccc(OC(=O)[C@H](Cc3ccccc3)NC(=O)C(Cl)Cl)c(OC)c2)ccc1OC(=O)[C@H](Cc1ccccc1)NC(=O)C(Cl)Cl` [CMC 5], for which the EC50 with MDA-MB231 (MB231) cells (72 h) amounted to 838 nM; with T47D cells it was 1240 nM.
Take `COc1cc(/C=C/C(=O)/C=C(O)/C=C/c2ccc(OC(=O)CCCNC(=O)C(Cl)Cl)c(OC)c2)ccc1OC(=O)CCCNC(=O)C(Cl)Cl` [CMC 6]: the EC50 with MDA-MB231 (MB231) cells (72 h) was 942 nM; with T47D cells, 1370 nM.

Source of the values: patent publication US20260069699A1, “Hybrid Curcumin Conjugates And Methods Of Use Thereof” (AUGUSTA UNIVERSITY RESEARCH INSTITUTE, INC., priority 2020, published 2026).
